Test results reported in patent publication US20100324067A1, “TETRACYCLIC DIPYRANO-COUMARIN COMPOUNDS WITH ANTI-HIV AND ANTI-MYCOBACTERIUM TUBERCULOSIS ACTIVITIES” (priority 2007, published 2010).
≈ marks a conversion by molar mass, not a printed value. Read-outs that look alike come from different tables or passages of the source.

Assays:
[1] = test system: Mycobacterium tuberculosis H37Rv (ATCC 27294); assay: Microplate Alamar Blue Assay (MABA) in BACTEC 12B medium (TAACF screen); format: cell-based; conditions: for IC50: read-out: IC50
[2] = read-out: anti-TB active compound (MIC90 less than 10 μg/mL), classification

CCOC1c2c3c(c4oc(=O)cc(CC)c4c2OCC1C)C(=O)CC(C)O3 (stereo not shown) [Example 94, 8-ethyoxyl-7,10-dimethyl-4-ethyl-7,8,10,11-tetrahydro-6H-benzo[2,3-f;2′,3′-h]-tripyranyl-2,12-dione]
melting point: 174 to 176 °C | IC50 ([1]; MABA, H37Rv): 10 µg/mL (≈ 26.9 µM) | MIC90 ([1]; MABA, H37Rv, read-out: MIC90): 16.7 µg/mL (≈ 44.8 µM)

CCCc1c(F)c(=O)oc2c3c(c4c(c12)OC(CC)C=C4)OC(C)CC3=O (stereo not shown) [Example 56, 10-methyl-4-n-propyl-6-ethyl-3-fluoro-2H,6H,12H-benzo[1,2-b:3,4-b′:5,6-b″]-tripyrany 1-2,12-dione]
melting point: 147 to 149 °C | IC50 ([1]; MABA, H37Rv): 62.3 µg/mL (≈ 167 µM) | MIC90 ([1]; MABA, H37Rv, read-out: MIC90): > 100 µg/mL

CCCc1cc(=O)oc2c3c(c4c(c12)OC(c1ccccc1N)C=C4)OC(C)CC3=O (stereo not shown) [Example 99]
melting point: 175 to 177 °C | IC50 ([1]; MABA, H37Rv): 7.49 µg/mL (≈ 17.9 µM) | MIC90 ([1]; MABA, H37Rv, read-out: MIC90): 15.5 µg/mL (≈ 37.1 µM)

CCCc1cc(=O)oc2c3c(c4c(c12)OC(C)(C)C=C4)OC(CN=[N+]=[N-])CC3=O (stereo not shown) [Example 58]
melting point: 116 to 117 °C | IC50 ([1]; MABA, H37Rv): 34.5 µg/mL (≈ 87.2 µM) | MIC90 ([1]; MABA, H37Rv, read-out: MIC90): 54.9 µg/mL (≈ 139 µM)

CCCC1C=Cc2c3c(c4oc(=O)c(F)c(CC)c4c2O1)C(=O)CC(C)O3 (stereo not shown) [Example 39, 10-methyl-4-ethyl-6-n-propyl-3-fluoro-2H,6H,12H-benzo[1,2-b:3,4-b′:5,6-b″]-tripyranyl-2,12-dione]
melting point: 151 to 153 °C | IC50 ([1]; MABA, H37Rv): 5.09 µg/mL (≈ 13.7 µM) | MIC90 ([1]; MABA, H37Rv, read-out: MIC90): 9.94 µg/mL (≈ 26.7 µM) | MIC90 [1, 2]: < 10 µg/mL

CC1CC(=O)c2c(c3c(c4c(-c5cc(F)c(Cl)nc5Cl)cc(=O)oc24)OC(C)(C)C=C3)O1 (stereo not shown) [Example 25]
melting point: 158 to 160 °C | IC50 ([1]; MABA, H37Rv): 2.86 µg/mL (≈ 6 µM) | MIC90 ([1]; MABA, H37Rv, read-out: MIC90): 3.9 µg/mL (≈ 8.18 µM) | MIC90 [1, 2]: < 10 µg/mL

Cc1c(C)c2c3c(c4c(c2oc1=O)C(=O)CC(C)O4)C=CC(C)(C)O3 (stereo not shown) [Example 2, 3,4,6,6,10-pentamethyl-2H,6H,12H-benzo[1,2-b:3,4-b′:5,6-b″]-tripyranyl-2,12-dione]
melting point: 142 to 144 °C | IC50 ([1]; MABA, H37Rv): 20.3 µg/mL (≈ 59.7 µM) | MIC90 ([1]; MABA, H37Rv, read-out: MIC90): 35.2 µg/mL (≈ 103 µM)

CCCCC1C=Cc2c3c(c4oc(=O)c(Cl)c(CCC)c4c2O1)C(=O)CC(C)O3 (stereo not shown) [Example 49, 10-methyl-4-n-propyl-3-chloro-6-n-butyl-2H,6H,12H-benzo[1,2-b:3,4-b′:5,6-b″]-tripyranyl-2,12-dione]
melting point: 146 to 149 °C | IC50 ([1]; MABA, H37Rv): 4.62 µg/mL (≈ 11.1 µM) | MIC90 ([1]; MABA, H37Rv, read-out: MIC90): 6.4 µg/mL (≈ 15.3 µM) | MIC90 [1, 2]: < 10 µg/mL

CCCc1cc(=O)oc2c3c(c4c(c12)OC(C)C=C4)OC(C)CC3=O (stereo not shown) [Example 80, 6,10-dimethyl-4-n-propyl-2H,6H,12H-benzo[1,2-b:3,4-b′:5,6-b″]-tripyranyl-2,12-dione]
melting point: 125 to 127 °C | IC50 ([1]; MABA, H37Rv): 3.42 µg/mL (≈ 10 µM) | MIC90 ([1]; MABA, H37Rv, read-out: MIC90): 5.46 µg/mL (≈ 16 µM) | MIC90 [1, 2]: < 10 µg/mL

CCCc1cc(=O)oc2c3c(c4c(c12)OC(CC)C=C4)OC(C)CC3=O (stereo not shown) [Example 52, 10-methyl-4-n-propyl-6-ethyl-2H,6H,12H-benzo[1,2-b:3,4-b′:5,6-b″]-tripyranyl-2,12-dione]
melting point: 139 to 141 °C | IC50 ([1]; MABA, H37Rv): 11.8 µg/mL (≈ 33.2 µM) | MIC90 ([1]; MABA, H37Rv, read-out: MIC90): 13.4 µg/mL (≈ 37.8 µM)

CC1CC(=O)c2c(c3c(c4c(CN5CCNCC5)cc(=O)oc24)OC(C)(C)C=C3)O1 (stereo not shown) [Example 6, 6,6,10-trimethyl-4-piperazidinylmethylene-10,11-dihydro-6H-benzo[2,3-f:2′,3′-h]-tripyranyl-2,12-dione]
melting point: 156 to 158 °C | IC50 ([1]; MABA, H37Rv): 52.4 µg/mL (≈ 128 µM) | MIC90 ([1]; MABA, H37Rv, read-out: MIC90): > 100 µg/mL

CCCc1cc(=O)oc2c3c(c4c(c12)OC(c1ccccc1)C=C4)OC(C)CC3=O (stereo not shown) [Example 41, 10-methyl-4-n-propyl-6-phenyl-2H,6H,12H-benzo[1,2-b:3,4-b′:5,6-b″]-tripyranyl-2,12-dione]
melting point: 96 to 99 °C | IC50 ([1]; MABA, H37Rv): 2.92 µg/mL (≈ 7.25 µM) | MIC90 ([1]; MABA, H37Rv, read-out: MIC90): 3.27 µg/mL (≈ 8.12 µM) | MIC90 [1, 2]: < 10 µg/mL

CCCc1cc(=O)oc2c3c(c4c(c12)OC(CCC)C=C4)OCC(C)C3=O (stereo not shown) [Example 51]
melting point: 148 to 150 °C | IC50 ([1]; MABA, H37Rv): < 0.2 µg/mL | MIC90 ([1]; MABA, H37Rv, read-out: MIC90): 0.496 µg/mL (≈ 1.35 µM) | MIC90 [1, 2]: < 10 µg/mL

CCc1cc(=O)oc2c3c(c4c(c12)OC(CC)C=C4)OC(C)CC3=O (stereo not shown) [Example 53, 10-methyl-4,6-diethyl-2H,6H,12H-benzo[1,2-b:3,4-b′:5,6-b″]-tripyranyl-2,12-dione]
melting point: 129 to 131 °C | IC50 ([1]; MABA, H37Rv): 6.1 µg/mL (≈ 17.9 µM) | MIC90 ([1]; MABA, H37Rv, read-out: MIC90): 6.85 µg/mL (≈ 20.1 µM) | MIC90 [1, 2]: < 10 µg/mL

CC1CC(=O)c2c(c3c(c4c5c(c(=O)oc24)CCC5)OC(C)(C)C=C3)O1 (stereo not shown) [Example 26, 6,6,10-trimethyl-3,4-cyclopentyl-2H,6H,12H-benzo[1,2-b:3,4-b′:5,6-b″]-tripyranyl-2,12-dione]
melting point: 108 to 109 °C | IC50 ([1]; MABA, H37Rv): 23.9 µg/mL (≈ 67.8 µM) | MIC90 ([1]; MABA, H37Rv, read-out: MIC90): 43.6 µg/mL (≈ 124 µM)

CCCc1cc(=O)oc2c3c(c4c(c12)OCC(C)C4OCC)OC(C)CC3=O (stereo not shown) [Example 95, 8-ethyoxyl-7,10-dimethyl-4-n-propyl-7,8,10,11-tetrahydro-6H-benzo[2,3-f;2′,3‘-h’ ]-trip yranyl-2,12-dione]
melting point: 198 to 201 °C | IC50 ([1]; MABA, H37Rv): 20.1 µg/mL (≈ 52 µM) | MIC90 ([1]; MABA, H37Rv, read-out: MIC90): 34.5 µg/mL (≈ 89.2 µM)

CCCc1cc(=O)oc2c3c(c4c(c12)OC(C)(C)C=C4)OC(CNC(=O)Nc1ccc(F)cc1)CC3=O (stereo not shown) [Example 60, 6,6-dimethyl-4-n-propyl-10-(p-fluorophenylureido)methylene-2H,6H,12H-benzo[1,2-b:3,4-b′:5,6-b″]-tripyranyl-2,12-dione]
melting point: 119 to 120.5 °C | IC50 ([1]; MABA, H37Rv): 32.5 µg/mL (≈ 64.3 µM) | MIC90 ([1]; MABA, H37Rv, read-out: MIC90): > 100 µg/mL

CCCc1cc(=O)oc2c3c(c4c(c12)OC(C)(C)C=C4)OC(CNS(=O)(=O)c1ccc(NC(C)=O)cc1)CC3=O (stereo not shown) [Example 61, 6,6-dimethyl-4-n-propyl-10-(p-acetylaminophenylsulfonamido)methylene-2H,6H,12H-benzo[1,2-b:3,4-b′:5,6-b″]-tripyranyl-2,12-dione]
melting point: 127 to 128.5 °C | IC50 ([1]; MABA, H37Rv): 17.2 µg/mL (≈ 30.4 µM) | MIC90 ([1]; MABA, H37Rv, read-out: MIC90): > 100 µg/mL

CCCc1cc(=O)oc2c3c(c4c(c12)OC(c1ccccc1)C=C4)OCC(C)C3=O (stereo not shown) [Example 78, 4-n-propyl-6-phenyl-11-methyl-2H,6H,12H-benzo[1,2-b:3,4-b′:5,6-b″]-tripyranyl-2,12-dione]
melting point: 187 to 189 °C | IC50 ([1]; MABA, H37Rv): 99 µg/mL (≈ 246 µM) | MIC90 ([1]; MABA, H37Rv, read-out: MIC90): > 100 µg/mL

CCCc1cc(=O)oc2c(-c3cccn3Cc3ccccn3)c(O)c3c(c12)OC(C)(C)C=C3 [Example 68, 5-hydroxy-6-(1′-(2-pyridyl)methylene-1′H-pyrrolyl-2′-ene)-2,2-dimethyl-10-n-propyl-2H-benzo-[2,3-f]-pyranyl-8-one]
melting point: 171 to 173 °C | IC50 ([1]; MABA, H37Rv): 33 µg/mL (≈ 74.6 µM) | MIC90 ([1]; MABA, H37Rv, read-out: MIC90): 44.9 µg/mL (≈ 101 µM)

C/C=C/C1C=Cc2c3c(c4oc(=O)cc(CCC)c4c2O1)C(=O)CC(C)O3 (stereo not shown) [Example 85, 4-n-propyl-6-propenyl-1-methyl-2H,6H,12H-benzo[1,2-b:3,4-b′:5,6-b″]-tripyranyl-2,12-dione]
melting point: 136 to 138 °C | IC50 ([1]; MABA, H37Rv): 2.08 µg/mL (≈ 5.68 µM) | MIC90 ([1]; MABA, H37Rv, read-out: MIC90): 4.86 µg/mL (≈ 13.3 µM) | MIC90 [1, 2]: < 10 µg/mL

CCc1c(F)c(=O)oc2c3c(c4c(c12)OC(c1ccccc1)C=C4)OC(C)CC3=O (stereo not shown) [Example 42, 10-methyl-4-ethyl-6-phenyl-3-fluoro-2H,6H,12H-benzo[1,2-b:3,4-b′:5,6-b″]-tripyranyl-2,12-dione]
melting point: 109 to 111 °C | IC50 ([1]; MABA, H37Rv): 5.56 µg/mL (≈ 13.7 µM) | MIC90 ([1]; MABA, H37Rv, read-out: MIC90): 6.81 µg/mL (≈ 16.7 µM) | MIC90 [1, 2]: < 10 µg/mL

CCCCC1C=Cc2c3c(c4oc(=O)c(F)c(CC)c4c2O1)C(=O)CC(C)O3 (stereo not shown) [Example 40]
melting point: 142 to 143 °C | IC50 ([1]; MABA, H37Rv): 1.58 µg/mL (≈ 4.1 µM) | MIC90 ([1]; MABA, H37Rv, read-out: MIC90): 2.47 µg/mL (≈ 6.39 µM) | MIC90 [1, 2]: < 10 µg/mL
